{"source": "patent US5340589A", "about": "“Low solubility drug-coated bead compositions” (Sterling Winthrop Inc., priority 1993, dated 1994)", "key": {"[1]": {"conditions": "in vivo, po; cited from earlier work"}, "[2]": {"conditions": "dog, in vivo, po", "protocol": "Blood samples were taken at 0.25(tablet only), 0.5, 1, 2, 4, 6, 8, 10, 12 and 24 hours postmedication. The plasma concentration of (5α,17α)-1'-(methylsulfonyl)-1'-H-pregn-20-yno[3,2-c]pyrazol-17-ol was measured from each sample. The data were analyzed to determine the mean maximum concentration of (5α,17α)-1'-(methylsulfonyl)-1'-H-pregn-20-yno[3,2-c]pyrazol-17-ol reached (mean Cmax) and the mean area under the (5α,17α)-1'-(methylsulfonyl)-1'H-pregn-20-yno[3,2-c]pyrazol-17-ol concentration-time curve for the twenty-four hour period (mean AUC0-24)."}}, "data": [{"compound": "C#C[C@]1(O)CC[C@H]2[C@@H]3CCC4=Cc5oncc5C[C@]4(C)[C@H]3CC[C@@]21C", "note": "[Compound A, 17a-pregna-2,4-diene-20-yno[2,3-d]isoxazol-17-ol]", "values": [{"measurement": "human bioavailability compared with conventional starch-lactose-talc-magnesium stearate dry powder capsule formulations", "setting": "[1]", "result": "Improved human bioavailability"}]}, {"compound": "(5α,17α)-1'-(methylsulfonyl)-1'H-pregn-20-yno[3,2-c]pyrazol-17-ol [Comparative Example]", "values": [{"measurement": "Mean Cmax", "setting": "[2]", "result": "0.23 (0.11) μg./ml."}, {"measurement": "Mean AUC0-24", "setting": "[2]; 24 h", "result": "1.70 (1.64) μg.-hr./ml."}]}]}
